One data set relates to Aspergillus nigar. Put plainly: Minimum growth inhibition concentration, agar plate dilution method. The class given is cell-based. From the text: (§1) The measurement of the minimum growth inhibition concentration (MIC) was made following the agar plate dilution method using an agar medium containing the compound A.
The test system of data set [1] is Botrytis cinerea. The description is as above. The class given is cell-based.
From the text: as §1

Another data set has as its system Rhynchosporium secalis. The data set is described as above. The class given is cell-based.
From the text: as §1

The next data set has as its system Sclerotinia cinerea. Described as above. The class given is cell-based.
From the text: as §1

Data set [2] deals with Sclerotinia sclerotiorum. The data set is described as above. The class given is cell-based.
From the text: as §1

Data set [3] deals with Botrytis cinerea. Put plainly: Test for controlling gray mold on cucumber (prevention test). The class given is in vivo. The following applies: (1-diameter treated/untreated)×100. The protocol:
Test for Controlling Gray Mold (Botrytis cinerea) on Cucumber (Prevention Test)
(§2) Onto 1.5 leaf-stage cucumber (variety: Sagamihanjiro) which had been grown in a 7 cm-diameter pot was sprayed, using a spray gun, a drug solution produced by diluting an emulsifiable concentrate containing the present compound with water to the predetermined concentration, at 10 ml per pot.
(§3) On the following day, the first leaf on which was sprayed the drug solution was plucked off, and onto the surface of the leaf was inoculated a mycelia disk which had been prepared from the tip of a cell cluster of Botrytis cinerea cultured at 20° C. for 2 days in a PSA (potato sucrose agar) medium using a 4 mm-diameter cork borer. Then, the cucumber leaf was allowed to stand for 5 days at 20° C. in a moist chamber, the diameter of the diseased spots which formed were measured, and the degree of control was determined according to the following equation. Here, iprodion (trade name: Lobral) was used as a control preparation.
Preventive value=(1-diameter of disease spots of drug-treated group/diameter of disease spots of untreated group)×100

Data set [4] deals with cucumber. Put plainly: Toxicity in gray mold prevention test on cucumber. The data set is classed as in vivo, cucumber (variety: Sagamihanjiro). The protocol: as §2, §3
Data set [5] deals with Botrytis cinerea. Put plainly: Test for controlling gray mold on cucumber (curative test). Particulars: (1-length treated/untreated)×100. The data set is classed as in vivo. The protocol: Test for Controling Gral Mold (Botrytis cinerea) on Cucumber (Curative Test)
The first leaf was plucked off from 1.5 leaf-sage cucumber (variety: Sgamihanjiro) which had been grown in a 7 cm-diameter pot, and a mycelia disk of Botrytis cinerea was inoculated in the same manner as in the Experiment 1. Then, the cucumber leaf was allowed to stand for 2 days at 20° C. in a moist chamber, and when the disease spots reached approximately […] in diameter, a drug solution produced by deluting an emulsion containing the present compound with water to the desired concentration was sprayed at 10 ml per leaf using a spray gun, and after drying in air the leaf was allowed to stand for 3 days at 20° C. in a moist chamber.
The lengths of the newly developed diseases spots were measured, and the preventive value was determined using the following equation.
Preventive value=(1-length of diseased spots of drug-treated group/length of diseased spots of untreated group)×100

The test system of data set [6] is platelet aggregation (ADP). Put plainly: Anti-platelet aggregation effect, ADP-induced. Particulars: Cavia porcellus; ADP 5 μM; guinea-pig platelet rich plasma, 37° C., 0.5% DMSO. The data set is classed as cell-based, Hartley male guinea-pigs. Here is the method: (§4) Blood was collected from the abdominal artery of Hartley male guinea-pigs (weight: about 300 g) into a syringe containing 1/10 volume 3.8% sodium citrate. The blood thus obtained was subjected to a centrifugation at 160×g for 10 minutes at room temperature to obtain platelet rich plasma (PRP). Furthermore, the residue was subjected to a centrifugation at 1500×g for 15 minutes to obtain platelet poor plasma (PPP). The measurement was carried out by diluting PRP with PPP to 300,000/mm^3. The measurement range of transmittance was adjusted to 0% in the case of PRP and to 100% in the case of PPP. Thereafter, a test compound dissolved in 100% dimethylsulfoxide (DMSO) was added to PRP (the final concentration of DMSO: 0.5%). After incubation at 37° C., 1000 rpm for 2 minutes, an aggregating agent was added to measure an aggregation curve. The anti-platelet aggregation effect of the test compound was expressed by a concentration (IC50 :μM) at which the aggregation of control was 50% inhibited. The aggregating agents used were ADP (the final concentration: 5 μM), collagen (the final concentration: 2 μg/ml) and U46619 (the final concentration: 0.5 μM). The measurement of platelet aggregation was carried out using NBS HEMA Tracer 601.

Data set [7] concerns platelet aggregation (collagen). Briefly: Anti-platelet aggregation effect, collagen-induced. The data set is classed as cell-based, Hartley male guinea-pigs. Particulars: Cavia porcellus; collagen 2 μg/ml; guinea-pig platelet rich plasma, 37° C., 0.5% DMSO. Here is the method:
as §4

Data set [8] relates to platelet aggregation (U46619). Put plainly: Anti-platelet aggregation effect, U46619-induced. The data set is classed as cell-based, Hartley male guinea-pigs. Particulars: Cavia porcellus; U46619 0.5 μM; guinea-pig platelet rich plasma, 37° C., 0.5% DMSO. Here is the method: as §4
Another data set is described as follows: Solubility in solvents. The data set is classed as physicochemical.
Data set [9] has as its system Sclerotinia sclerotiorum. Put plainly: Test for controlling cucumber Sclerotinia rot (prevention test). The data set is classed as in vivo. The following applies: Sclerotinia rot on cucumber, (1-diameter treated/untreated)×100. The protocol: Test for Controling Cucumber Sclerotinia Rot (Sclerotinia sclerotiorum) (Prevention Test)
as §2
(§5) On the following day, the first leaf on which was sprayed the drug solution was plucked off, and onto the surface of the leaf was inoculated a mycelia disk which had been prepared from the tip of a cell cluster of Sclerotinia sclerotiorum cultured at 20° C. for 1 day in a PSA medium by using a 4 mm-diameter cork borer. Then, the cucumber leaf was allowed to stand for 3 days at 20° C. in a moist chamber, the diameter of the disease spots which formed were measured measured, and the preventive value was determined according to the following equation.
Preventive value=(1-diameter of diseased spots of drug-treated group/diameter of disease spots of untreated group)×100

The test system of data set [10] is cucumber. Briefly: Toxicity in Sclerotinia rot prevention test on cucumber. The data set is classed as in vivo, cucumber (variety: Sagamihanjiro). The protocol: as §2, §5

≈ marks a conversion by molar mass, not a printed value.

For orientation: MIC means the lowest concentration that inhibits growth of the organism. Higher therefore signals a need for much substance. The IC50 is the concentration that inhibits the measured activity by half. Read a low IC50 as greater potency.

For the compound `CCCCC1CC2=C(C(=O)OC2=O)C(C(O)CCCC)CC2=C1C(=O)OC2=O` (stereo not drawn) [Compound A], the MIC in the data set on Aspergillus nigar worked out at 3.13 µg/mL (≈ 8.02 µM); in the data set with Botrytis cinerea [1], 0.78 µg/mL (≈ 2 µM); against Rhynchosporium secalis, 1.56 µg/mL (≈ 4 µM); against Sclerotinia cinerea, 3.13 µg/mL (≈ 8.02 µM); with Sclerotinia sclerotiorum [2], 1.56 µg/mL (≈ 4 µM). The Preventive value in the data set with Botrytis cinerea [3] (25 ppm spraying) is given as 100; in the data set on Botrytis cinerea [3] (50 ppm spraying) it was 100; in the data set with Botrytis cinerea [3] (100 ppm spraying) it was 100; in the data set on Botrytis cinerea [5] (50 ppm spraying) it was 73; in the data set on Botrytis cinerea [5] (100 ppm spraying), 79. The Toxicity entry in the data set on cucumber [4] (25 ppm spraying), with cucumber [4] (50 ppm spraying) and in the data set with cucumber [4] (100 ppm spraying) was “none” in each case. Further, the figures for the IC50 in data set [6], in data set [7] and in data set [8] were 187 µM, 42 µM and 484 µM, respectively. Moreover, the Solubility in solvents result in the data set “Solubility in solvents” (chloroform, ethyl acetate, methanol) is “readily soluble”; in the data set “Solubility in solvents” (water), “sparingly soluble”.

Take `CC(C)NC(=O)N1CC(=O)N(c2cc(Cl)cc(Cl)c2)C1=O` [Iprodion, iprodion, reference compound]: the Preventive value in the data set on Botrytis cinerea [3] (25 ppm spraying) is on record as 25; in the data set with Botrytis cinerea [3] (50 ppm spraying), 95; in the data set with Botrytis cinerea [3] (100 ppm spraying) it was 100; in the data set with Botrytis cinerea [5] (50 ppm spraying), 70; with Botrytis cinerea [5] (100 ppm spraying), 75; in the data set on Sclerotinia sclerotiorum [9] (50 ppm spraying) it was 100. Moreover, in the data set with Sclerotinia sclerotiorum [9] (100 ppm spraying), the Preventive value turned out to be 100. In addition, the Toxicity entry in the data set with cucumber [4] (25 ppm spraying), with cucumber [4] (50 ppm spraying), with cucumber [4] (100 ppm spraying), in the data set with cucumber [10] (50 ppm spraying) and with cucumber [10] (100 ppm spraying) was “none” each time.

Source of the values: patent US5346919A, “Anti-bacterial substances and microorganisms which produce them” (Nissan Chemical Industries, Ltd., priority 1992, dated 1994).
